Laboratory results taken from the NIST ThermoML archive (doi:10.1021/je400184t).

Test: excess molar enthalpy (molar enthalpy of mixing); xn = mol fraction of the nth substance listed
Conditions: 298.15 K, 101 kPa, Liquid, Calvet calorimetry

CN(CCO)CCO [N-methyldiethanolamine] + c1ccncc1
Conditions	excess molar enthalpy [kcal/mol]
x2 = 0.00136	-0.000478
x2 = 0.00718	-0.00191
x2 = 0.01292	-0.00335
x2 = 0.0186	-0.00454
x2 = 0.02422	-0.00598
x2 = 0.03106	-0.00717
x2 = 0.0378	-0.00837
x2 = 0.04445	-0.00956
x2 = 0.051	-0.0105
x2 = 0.05747	-0.0115
x2 = 0.06385	-0.0124
x2 = 0.0715	-0.0134
x2 = 0.07636	-0.0143
x2 = 0.08249	-0.0151
x2 = 0.08853	-0.0158
x2 = 0.0945	-0.0165
x2 = 0.1062	-0.0172
x2 = 0.1119	-0.0179
x2 = 0.1176	-0.0186
x2 = 0.1232	-0.0191
x2 = 0.1287	-0.0198
x2 = 0.1342	-0.0203
x2 = 0.139	-0.0208
x2 = 0.1396	-0.0215
x2 = 0.1449	-0.022
x2 = 0.1528	-0.0225
x2 = 0.1606	-0.0232
x2 = 0.2605	-0.0282
x2 = 0.2684	-0.0284
x2 = 0.2722	-0.0287
x2 = 0.278	-0.0287
x2 = 0.2817	-0.0289
x2 = 0.2854	-0.0287
x2 = 0.2891	-0.0287
x2 = 0.2928	-0.0289
x2 = 0.2964	-0.0289
x2 = 0.2999	-0.0289
x2 = 0.3034	-0.0289
x2 = 0.3069	-0.0289
x2 = 0.3104	-0.0289
x2 = 0.3138	-0.0289
x2 = 0.3172	-0.0287
x2 = 0.3206	-0.0287
x2 = 0.3239	-0.0287
x2 = 0.3272	-0.0287
x2 = 0.3304	-0.0287
x2 = 0.3337	-0.0287
x2 = 0.3368	-0.0287
x2 = 0.34	-0.0287
x2 = 0.3431	-0.0284
x2 = 0.3463	-0.0284
x2 = 0.3493	-0.0284
x2 = 0.3524	-0.0284
x2 = 0.3554	-0.0284
x2 = 0.3584	-0.0282
x2 = 0.3614	-0.0282
x2 = 0.3643	-0.0282
x2 = 0.3672	-0.0282
x2 = 0.3701	-0.028
x2 = 0.3729	-0.028
x2 = 0.3758	-0.028
x2 = 0.3786	-0.0277
x2 = 0.3814	-0.0277
x2 = 0.3841	-0.0277
x2 = 0.3868	-0.0277
x2 = 0.3895	-0.0275
x2 = 0.3922	-0.0275
x2 = 0.3949	-0.0275
x2 = 0.3975	-0.0272
x2 = 0.4001	-0.0272
x2 = 0.4027	-0.0272
x2 = 0.4053	-0.027
x2 = 0.4078	-0.027
x2 = 0.4104	-0.027
x2 = 0.4129	-0.0268
x2 = 0.4153	-0.0268
x2 = 0.4178	-0.0268
x2 = 0.4203	-0.0265
x2 = 0.4227	-0.0265
x2 = 0.4251	-0.0265
x2 = 0.4274	-0.0263
x2 = 0.4298	-0.0263
x2 = 0.4321	-0.0263
x2 = 0.4345	-0.0261
x2 = 0.4368	-0.0261
x2 = 0.4391	-0.0258
x2 = 0.4414	-0.0258
x2 = 0.4436	-0.0258
x2 = 0.446	-0.0256
x2 = 0.4482	-0.0256
x2 = 0.4505	-0.0256
x2 = 0.4528	-0.0253
x2 = 0.4551	-0.0253
x2 = 0.4574	-0.0251
x2 = 0.4597	-0.0251
x2 = 0.462	-0.0251
x2 = 0.4643	-0.0249
x2 = 0.4666	-0.0249
x2 = 0.4689	-0.0246
x2 = 0.4712	-0.0246
x2 = 0.4735	-0.0246
x2 = 0.4758	-0.0244
x2 = 0.4781	-0.0244
x2 = 0.4804	-0.0241
x2 = 0.4827	-0.0241
x2 = 0.4849	-0.0241
x2 = 0.4872	-0.0239
x2 = 0.4895	-0.0239
x2 = 0.4918	-0.0237
x2 = 0.4941	-0.0237
x2 = 0.4964	-0.0234
x2 = 0.4987	-0.0234
x2 = 0.501	-0.0234
x2 = 0.5033	-0.0232
x2 = 0.5056	-0.0232
x2 = 0.5079	-0.0229
x2 = 0.5102	-0.0229
x2 = 0.5125	-0.0227
x2 = 0.5148	-0.0227
x2 = 0.5171	-0.0225
x2 = 0.5193	-0.0225
x2 = 0.5216	-0.0222
x2 = 0.5239	-0.0222
x2 = 0.5262	-0.0222
x2 = 0.5285	-0.022
x2 = 0.5308	-0.022
x2 = 0.5331	-0.0217
x2 = 0.5354	-0.0217
x2 = 0.5377	-0.0215
x2 = 0.54	-0.0215
x2 = 0.5423	-0.0213
x2 = 0.5446	-0.0213
x2 = 0.5469	-0.021
x2 = 0.5492	-0.021
x2 = 0.5515	-0.0208
x2 = 0.5538	-0.0208
x2 = 0.5561	-0.0206
x2 = 0.5584	-0.0206
x2 = 0.5606	-0.0203
x2 = 0.5629	-0.0203
x2 = 0.5652	-0.0201
x2 = 0.5675	-0.0201
x2 = 0.5698	-0.0198
x2 = 0.5721	-0.0198
x2 = 0.5744	-0.0191
x2 = 0.5767	-0.0196
x2 = 0.579	-0.0194
x2 = 0.5813	-0.0194
x2 = 0.5836	-0.0191
x2 = 0.5859	-0.0191
x2 = 0.5882	-0.0189
x2 = 0.5905	-0.0189
x2 = 0.5928	-0.0186
x2 = 0.595	-0.0186
x2 = 0.5974	-0.0184
x2 = 0.5996	-0.0182
x2 = 0.6019	-0.0182
x2 = 0.6042	-0.0179
x2 = 0.6065	-0.0179
x2 = 0.6088	-0.0177
x2 = 0.6111	-0.0177
x2 = 0.6134	-0.0174
x2 = 0.6157	-0.0174
x2 = 0.618	-0.0172
x2 = 0.6203	-0.0172
x2 = 0.6226	-0.017
x2 = 0.6249	-0.0167
x2 = 0.6272	-0.0167
x2 = 0.6295	-0.0165
x2 = 0.6318	-0.0165
x2 = 0.6341	-0.0163
x2 = 0.6363	-0.0163
x2 = 0.6386	-0.016
x2 = 0.6409	-0.016
x2 = 0.6432	-0.0158
x2 = 0.6455	-0.0155
x2 = 0.6478	-0.0155
x2 = 0.6501	-0.0153
x2 = 0.6524	-0.0153
x2 = 0.6547	-0.0151
x2 = 0.657	-0.0148
x2 = 0.6593	-0.0148
x2 = 0.6616	-0.0146
x2 = 0.6639	-0.0146
x2 = 0.6662	-0.0143
x2 = 0.6685	-0.0143
x2 = 0.6707	-0.0141
x2 = 0.6731	-0.0139
x2 = 0.6753	-0.0139
x2 = 0.6776	-0.0136
x2 = 0.6799	-0.0136
x2 = 0.6822	-0.0134
x2 = 0.6845	-0.0131
x2 = 0.6868	-0.0131
x2 = 0.6891	-0.0129
x2 = 0.6914	-0.0127
x2 = 0.6937	-0.0127
x2 = 0.696	-0.0124
x2 = 0.6983	-0.0124
x2 = 0.7006	-0.0122
x2 = 0.7029	-0.012
x2 = 0.7052	-0.012
x2 = 0.7075	-0.0117
x2 = 0.7097	-0.0115
x2 = 0.712	-0.0115
x2 = 0.7143	-0.0112
x2 = 0.7166	-0.0112
x2 = 0.7189	-0.011
x2 = 0.7212	-0.0108
x2 = 0.7235	-0.0108
x2 = 0.7258	-0.0105
x2 = 0.7281	-0.0103
x2 = 0.7304	-0.0103
x2 = 0.7327	-0.01
x2 = 0.735	-0.0098
x2 = 0.7373	-0.0098
x2 = 0.7396	-0.00956
x2 = 0.7419	-0.00956
x2 = 0.7442	-0.00932
x2 = 0.7464	-0.00908
x2 = 0.7488	-0.00908
x2 = 0.751	-0.00884
x2 = 0.7533	-0.0086
x2 = 0.7556	-0.0086
x2 = 0.7579	-0.00837
x2 = 0.7602	-0.00813
x2 = 0.7625	-0.00813
x2 = 0.7648	-0.00789
x2 = 0.7671	-0.00765
x2 = 0.7694	-0.00765
x2 = 0.7717	-0.00741
x2 = 0.774	-0.00717
x2 = 0.7763	-0.00717
x2 = 0.7786	-0.00693
x2 = 0.7809	-0.00669
x2 = 0.7827	-0.00669
x2 = 0.7869	-0.00645
x2 = 0.7911	-0.00598
x2 = 0.7953	-0.00574
x2 = 0.7996	-0.0055
x2 = 0.8039	-0.00526
x2 = 0.8083	-0.00502
x2 = 0.8127	-0.00454
x2 = 0.8172	-0.0043
x2 = 0.8217	-0.00406
x2 = 0.8263	-0.00359
x2 = 0.8309	-0.00335
x2 = 0.8356	-0.00311
x2 = 0.8404	-0.00287
x2 = 0.8451	-0.00239
x2 = 0.85	-0.00215
x2 = 0.8549	-0.00191
x2 = 0.8598	-0.00167
x2 = 0.8648	-0.0012
x2 = 0.8699	-0.000956
x2 = 0.875	-0.000717
x2 = 0.8802	-0.000478
x2 = 0.8855	-0.000239
x2 = 0.8908	0
x2 = 0.8962	0.000239
x2 = 0.9016	0.000478
x2 = 0.9071	0.000717
x2 = 0.9127	0.000956
x2 = 0.9183	0.0012
x2 = 0.9241	0.00143
x2 = 0.9298	0.00143
x2 = 0.9357	0.00167
x2 = 0.9416	0.00167
x2 = 0.9477	0.00167
x2 = 0.9538	0.00191
x2 = 0.9599	0.00167
x2 = 0.9662	0.00167
x2 = 0.9725	0.00167
x2 = 0.9789	0.00143
x2 = 0.9854	0.0012
x2 = 0.992	0.000717
x2 = 0.9987	0.000239
